# Reference: PMC8796707 (ACS chemical biology, 2020)
# Read-outs that look alike come from different tables or passages of the source.
# Assays:
# dL5** = experiment: Binding kinetics and affinity of dye to purified FAP; conditions: SD, N = 4
# dK (dL5(E52K)) = type: binding
# [1] = tested on: HEK293 cells expressing NLS-dL5**; experiment: Cell permeability testing: labeling of nuclear localized FAP; type: cell-based; conditions: flow cytometry, 100 nM dye, normalized to MG-nBu
# FRB-HT/dK-FKBP = experiment: Rapamycin chemical inducer of dimerization; type: biochemical; conditions: 100 nM dK fusion, 200 nM HT fusion, 250 nM rapamycin, 10 nM DAPA
# dK-FRB/FKBP-HT = experiment: Rapamycin chemical inducer of dimerization; type: biochemical; conditions: 100 nM dK fusion, 200 nM HT fusion, 250 nM rapamycin, 10 nM DAPA
# [2] = tested on: HEK293 cells expressing HT-TM-mCer3 (HaloTag); type: cell-based; conditions: 500 nM dye, washed 6×, then 1 μM dL5**
# [3] = tested on: HaloTag (HT) protein fusion; experiment: Binding to purified HaloTag protein fusion, denaturing SDS-PAGE
# [4] = tested on: HEK293 cells expressing dK-TM coplated with HT-TM-mCer3 cells; conditions: 10 nM DAPA dye
# [5] = tested on: HEK293 cells expressing dL5**-TM coplated with HT-TM-mCer3 cells
# dK-FRB/FKBP-HT, sequence (P42345 2021-2113 limits assumed): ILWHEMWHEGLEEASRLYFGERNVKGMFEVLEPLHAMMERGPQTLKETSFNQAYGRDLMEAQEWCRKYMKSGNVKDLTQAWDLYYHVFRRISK
# dK-FRB/FKBP-HT, sequence (P62942 2-108 limits assumed, further chain): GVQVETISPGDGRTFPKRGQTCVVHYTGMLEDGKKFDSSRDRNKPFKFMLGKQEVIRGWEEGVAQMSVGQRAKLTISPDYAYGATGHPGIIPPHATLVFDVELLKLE
# FRB-HT/dK-FKBP, sequence (P42345 2012-2144 limits assumed): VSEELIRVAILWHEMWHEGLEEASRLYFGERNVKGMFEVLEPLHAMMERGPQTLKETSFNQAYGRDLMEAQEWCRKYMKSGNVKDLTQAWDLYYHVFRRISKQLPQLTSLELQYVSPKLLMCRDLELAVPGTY
# FRB-HT/dK-FKBP, sequence (P62942 2-108 limits assumed, further chain): as the sequence (P62942 2-108 limits assumed, further chain) above
substance,measurement,setting,value
MG-PEG3500-HexCl [DAPA],"off rate, koff, dL5**",dL5**,1.23 ± 0.06 ×10^−4 s^−1
same,"on rate, kon, dL5**",dL5**,3.2 ± 0.2 ×10^6 M^−1 s^−1
same,"off rate, koff, dK","dK (dL5(E52K)); SD, N = 4",53 ± 2 ×10^−4 s^−1
same,"on rate, kon, dK","dK (dL5(E52K)); SD, N = 4",0.39 ± 0.03 ×10^6 M^−1 s^−1
same,difference in FAP/DAPA KD between dL5** and dK,dK (dL5(E52K)); dK versus dL5**,~ 500 fold
same,Kd,"dK (dL5(E52K)); read-out: dissociation constant, KD, dK, KD = koff/kon, SD, N = 4",13.7 ± 0.5 nM
same,NLS-dL5** labeling signal relative to MG-nBu signal,[1],5%
same,increase in FAP–DAPA signal for rapamycin induced dimerization,FRB-HT/dK-FKBP,50%
same,increase in FAP–DAPA signal for rapamycin induced dimerization,dK-FRB/FKBP-HT,100%
same,labeling of HaloTag expressing cells,[2],specifically labeled mCer3 positive cells
same,binding to purified HaloTag protein fusion,[3],irreversibly bind
same,signal increase at the contact site versus the noncontact site,[4],40 fold
same,ratio between contact and noncontact signal,[5]; 100 nM DAPA dye,1.9
same,ratio between contact and noncontact signal,[5]; DAPA dye between 0.5 nM and 10 nM,> 3.8
